The values below are quoted from earlier work in patent US4946853A, “Method for the treatment of withdrawal symptoms associated with smoking cessation and preparations for use in said method” (priority 1987, dated 1990).

The conditions of data set [1]: within one hour of first smoking; 60 min.
The conditions of data set [2]: oral nicotine administration.
The conditions of data set [3]: in vivo.

For `CN1CCCC1c1cccnc1` (stereo not drawn) [nicotine], the “normal plasma trough level associated with usual smoking” value in data set [1] is 5 to 15 ng/mL. Also, in data set [2], the gastrointestinal upsets entry is “susceptibility of the patient to gastrointestinal upsets”. For the same compound, the “absorption by the percutaneous route” value in data set [3] is reported as “high degree of absorption”.
